Measured values published in ChEMBL document CHEMBL3217680, “Synthesis and antiproliferative activity of some 3-(pyrid-2-yl)-pyrazolines” (Medchemcomm, 2013).
Calls of active or inactive are those of the source. No cut-off for these calls is given here.

Key:
MDA-MB-231 [1] = assay: Antiproliferative activity against human MDA-MB-231 cells by MTS assay; format: functional, cell-based
HT-29 [2] = assay: Antiproliferative activity against human HT-29 cells by MTS assay; format: functional, cell-based
HT-29 [3] = assay: Inhibition of microtubule formation in human HT-29 cells at 100 nM using Dm1a tubulin antibodies by confocal microscopy; format: cell-based
HT-29 [4] = assay: Inhibition of microtubule formation in human HT-29 cells at 5 uM using Dm1a tubulin antibodies by confocal microscopy; format: cell-based
Tubulin (Homo sapiens) [5] = target: T1, Tubulin (Homo sapiens) (UniProt P68371+Q9H4B7+P0DPH7+P68366+Q13509+Q71U36+P04350+Q3ZCM7+P07437+P68363+Q9BQE3+Q6PEY2+Q13885+Q9BVA1+Q9BUF5); assay: Inhibition of tubulin (unknown origin) polymerization at 20 uM; format: protein-complex assay
HT-29 [6] = assay: Cell cycle arrest in human HT-29 cells assessed as accumulation at G2/M phase at 5 uM by […]propidium iodide staining-based FACS analysis (reference value: 22.8 %); format: functional
HT-29 [7] = assay: Cell cycle arrest in human HT-29 cells assessed as accumulation at S phase at 5 uM by […]propidium iodide staining-based FACS analysis (reference value: 13.6 %); format: functional
HT-29 [8] = assay: Cell cycle arrest in human HT-29 cells assessed as accumulation at G1 phase at 5 uM by […]propidium iodide staining-based FACS analysis (reference value: 60.2 %); format: functional
HT-29 [9] = assay: Cell cycle arrest in human HT-29 cells assessed as accumulation at G2/M phase at 1 uM by […]propidium iodide staining-based FACS analysis (reference value: 22.8 %); format: functional
HT-29 [10] = assay: Cell cycle arrest in human HT-29 cells assessed as accumulation at S phase at 1 uM by […]propidium iodide staining-based FACS analysis (reference value: 13.6 %); format: functional
HT-29 [11] = assay: Cell cycle arrest in human HT-29 cells assessed as accumulation at G1 phase at 1 uM by […]propidium iodide staining-based FACS analysis (reference value: 60.2 %); format: functional
HT-29 [12] = assay: Cell cycle arrest in human HT-29 cells assessed as accumulation at G2/M phase at 100 nM by […]propidium iodide staining-based FACS analysis (reference value: 22.8 %); format: functional
HT-29 [13] = assay: Cell cycle arrest in human HT-29 cells assessed as accumulation at S phase at 100 nM by […]propidium iodide staining-based FACS analysis (reference value: 13.6 %); format: functional
HT-29 [14] = assay: Cell cycle arrest in human HT-29 cells assessed as accumulation at G1 phase at 100 nM by […]propidium iodide staining-based FACS analysis (reference value: 60.2 %); format: functional
MDA-MB-468 = assay: Growth inhibition of human MDA-MB-468 cells; format: functional
[15] = Growth inhibition of human BT549 cells; format: functional; conditions: BT-549
T47D = assay: Growth inhibition of human T47D cells; format: functional
MCF7 = assay: Growth inhibition of human MCF7 cells; format: functional
MDA-MB-231 [16] = assay: Growth inhibition of human MDA-MB-231 cells; format: functional
[17] = Growth inhibition of human Hs 578T cells; format: functional
PC-3 = assay: Growth inhibition of human PC3 cells; format: functional
DU-145 = assay: Growth inhibition of human DU145 cells; format: functional
TK-10 = assay: Growth inhibition of human TK10 cells; format: functional
[18] = Growth inhibition of human UO31 cells; format: functional; conditions: UO-31
CAKI-1 = assay: Growth inhibition of human CAKI-1 cells; format: functional
[19] = Growth inhibition of human RXF393 cells; format: functional; conditions: RXF 393
SN12C = assay: Growth inhibition of human SN12C cells; format: functional
A498 = assay: Growth inhibition of human A498 cells; format: functional
ACHN = assay: Growth inhibition of human ACHN cells; format: functional
SK-OV-3 = assay: Growth inhibition of human SKOV3 cells; format: functional
786-0 = assay: Growth inhibition of human 786-0 cells; format: functional
[20] = Growth inhibition of human OVCAR5 cells; format: functional; conditions: OVCAR-5
[21] = Growth inhibition of human OVCAR8 cells; format: functional; conditions: OVCAR-8
[22] = Growth inhibition of human NCI-ADR-RES cells; format: functional
[23] = Growth inhibition of human OVCAR3 cells; format: functional; conditions: OVCAR-3
[24] = Growth inhibition of human OVCAR4 cells; format: functional; conditions: OVCAR-4
[25] = Growth inhibition of human UACC62 cells; format: functional; conditions: UACC-62
IGROV-1 = assay: Growth inhibition of human IGROV1 cells; format: functional
SK-MEL-28 = assay: Growth inhibition of human SK-MEL-28 cells; format: functional
SK-MEL-5 = assay: Growth inhibition of human SK-MEL-5 cells; format: functional
[26] = Growth inhibition of human UACC257 cells; format: functional; conditions: UACC-257
MDA-MB-435 = assay: Growth inhibition of human MDA-MB-435 cells; format: functional
SK-MEL-2 = assay: Growth inhibition of human SK-MEL-2 cells; format: functional
Malme-3M = assay: Growth inhibition of human MALME-3M cells; format: functional
M14 = assay: Growth inhibition of human M14 cells; format: functional
SNB-75 = assay: Growth inhibition of human SNB75 cells; format: functional
U-251 = assay: Growth inhibition of human U251 cells; format: functional
[27] = Growth inhibition of human LOXIMVI cells; format: functional; conditions: LOX IMVI
[28] = Growth inhibition of human SF539 cells; format: functional; conditions: SF-539
SNB-19 = assay: Growth inhibition of human SNB19 cells; format: functional
SF-268 = assay: Growth inhibition of human SF268 cells; format: functional
SW-620 = assay: Growth inhibition of human SW620 cells; format: functional
HT-29 [29] = assay: Growth inhibition of human HT-29 cells; format: functional
KM12 = assay: Growth inhibition of human KM12 cells; format: functional
[30] = Growth inhibition of human HCT15 cells; format: functional; conditions: HCT-15
HCT-116 = assay: Growth inhibition of human HCT116 cells; format: functional
[31] = Growth inhibition of human HCC2998 cells; format: functional; conditions: HCC 2998
COLO 205 = assay: Growth inhibition of human COLO205 cells; format: functional
NCI-H322M = assay: Growth inhibition of human NCI-H322M cells; format: functional
NCI-H460 = assay: Growth inhibition of human NCI-H460 cells; format: functional
NCI-H522 = assay: Growth inhibition of human NCI-H522 cells; format: functional
NCI-H226 = assay: Growth inhibition of human NCI-H226 cells; format: functional
NCI-H23 = assay: Growth inhibition of human NCI-H23 cells; format: functional
[32] = Growth inhibition of human EKVX cells; format: functional
HOP-62 = assay: Growth inhibition of human HOP62 cells; format: functional
[33] = Growth inhibition of human HOP92 cells; format: functional; conditions: HOP-92
SR = assay: Growth inhibition of human SR cells; format: functional
A549 = assay: Growth inhibition of human A549/ATCC cells; format: functional
RPMI-8226 = assay: Growth inhibition of human RPMI8226 cells; format: functional
[34] = Growth inhibition of human MOLT4 cells; format: functional; conditions: MOLT-4
HL-60(TB) = assay: Growth inhibition of human HL-60(TB) cells; format: functional
CCRF-CEM = assay: Growth inhibition of human CCRF-CEM cells; format: functional
Tubulin (Homo sapiens) [35] = target: T1, Tubulin (Homo sapiens); assay: Induction of tubulin (unknown origin) polymerization at 5 uM; format: protein-complex assay

## COc1cc(C2CC(c3ccccn3)=NN2c2ccccc2)cc(OC)c1OC (configuration not stated)
MDA-MB-231 [1]
  IC50: 4.36 µM
HT-29 [2]
  IC50: 26.2 µM

## COc1cc2c(c(OC)c1OC)-c1ccc(OC)c(=O)cc1[C@@H](NC(C)=O)CC2 [COLCHICINE]
HT-29 [3]
  inhibition: Active
MDA-MB-231 [1]
  IC50: 0.008 µM
HT-29 [2]
  IC50: 0.008 µM

## COc1cc(C(=O)N2N=C(c3ccccn3)C[C@@H]2c2ccccc2)cc(OC)c1OC
HT-29 [4]
  inhibition: Active
Tubulin (Homo sapiens) [5]
  inhibition: Active
HT-29 [6]
  Activity: 94.8%
HT-29 [7]
  Activity: 2%
HT-29 [8]
  Activity: 2.3%
HT-29 [9]
  Activity: 49.7%
HT-29 [10]
  Activity: 10.3%
HT-29 [11]
  Activity: 38.5%
HT-29 [12]
  Activity: 88.8%
HT-29 [13]
  Activity: 2.8%
HT-29 [14]
  Activity: 7.9%
MDA-MB-468
  GI50: 417 nM
[15]
  GI50: 5.13 µM
T47D
  GI50: > 100 µM
MCF7
  GI50: 324 nM
MDA-MB-231 [16]
  GI50: 989 nM
[17]
  GI50: 9.18 µM
PC-3
  GI50: > 100 µM
DU-145
  GI50: 4.26 µM
TK-10
  GI50: > 100 µM
[18]
  GI50: 5.01 µM
CAKI-1
  GI50: 493 nM
[19]
  GI50: 1030 nM
SN12C
  GI50: 3.53 µM
A498
  GI50: 943 nM
ACHN
  GI50: 4.29 µM
SK-OV-3
  GI50: 762 nM
786-0
  GI50: 1540 nM
[20]
  GI50: 4.01 µM
[21]
  GI50: 3.28 µM
[22]
  GI50: 519 nM
[23]
  GI50: 719 nM
[24]
  GI50: 5.95 µM
[25]
  GI50: 541 nM
IGROV-1
  GI50: 7.13 µM
SK-MEL-28
  GI50: 1510 nM
SK-MEL-5
  GI50: 432 nM
[26]
  GI50: > 100 µM
MDA-MB-435
  GI50: 273 nM
SK-MEL-2
  GI50: 699 nM
Malme-3M
  GI50: > 100 µM
M14
  GI50: 801 nM
SNB-75
  GI50: 277 nM
U-251
  GI50: 868 nM
[27]
  GI50: 1130 nM
[28]
  GI50: 1060 nM
SNB-19
  GI50: 1890 nM
SF-268
  GI50: 33.4 µM
SW-620
  GI50: 567 nM
HT-29 [29]
  GI50: 431 nM
KM12
  GI50: 711 nM
[30]
  GI50: 848 nM
HCT-116
  GI50: 586 nM
[31]
  GI50: 2320 nM
COLO 205
  GI50: 585 nM
NCI-H322M
  GI50: > 100 µM
NCI-H460
  GI50: 505 nM
NCI-H522
  GI50: 688 nM
NCI-H226
  GI50: 1330 nM
NCI-H23
  GI50: 3.45 µM
[32]
  GI50: > 100 µM
HOP-62
  GI50: 1820 nM
[33]
  GI50: > 100 µM
SR
  GI50: 415 nM
A549
  GI50: 952 nM
RPMI-8226
  GI50: 66.3 µM
[34]
  GI50: 4.46 µM
HL-60(TB)
  GI50: 747 nM
CCRF-CEM
  GI50: 2080 nM
MDA-MB-231 [1]
  IC50: 0.69 µM
HT-29 [2]
  IC50: 2.53 µM

## COc1cc(C2CC(c3ccccn3)=NN2C(C)=O)cc(OC)c1OC (configuration not stated)
MDA-MB-231 [1]
  IC50: 52.5 µM
HT-29 [2]
  IC50: > 500 µM

## c1ccc(C2CC(c3ccccn3)=NN2c2ccccc2)cc1 (configuration not stated)
MDA-MB-231 [1]
  IC50: 60.2 µM
HT-29 [2]
  IC50: 53.8 µM

## NC(=S)N1N=C(c2ccccn2)C[C@H]1c1ccccc1
MDA-MB-231 [1]
  IC50: 140 µM
HT-29 [2]
  IC50: 350 µM

## COc1cc(/C=C/C(=O)c2ccccn2)cc(OC)c1OC
MDA-MB-231 [1]
  IC50: 9.7 µM
HT-29 [2]
  IC50: 9.6 µM

## O=C(N1N=C(c2ccccn2)CC1c1ccccc1)C(F)(F)F (configuration not stated)
MDA-MB-231 [1]
  IC50: > 500 µM
HT-29 [2]
  IC50: > 500 µM

## COc1cc(C(=O)N2N=C(c3ccccn3)CC2c2cc(OC)c(OC)c(OC)c2)cc(OC)c1OC (configuration not stated)
MDA-MB-231 [1]
  IC50: 11.4 µM
HT-29 [2]
  IC50: 22.5 µM

## CNC(=S)N1N=C(c2ccccn2)C[C@H]1c1ccccc1
MDA-MB-231 [1]
  IC50: 20.7 µM
HT-29 [2]
  IC50: 25.6 µM

## CC(=O)O[C@H]1C(=O)[C@@]2(C)[C@H]([C@H](OC(=O)c3ccccc3)[C@]3(O)C[C@H](OC(=O)[C@H](O)[C@@H](NC(=O)c4ccccc4)c4ccccc4)C(C)=C1C3(C)C)[C@]1(OC(C)=O)CO[C@@H]1C[C@@H]2O
Tubulin (Homo sapiens) [35]
  Activity: Active

## CC(=O)N1N=C(c2ccccn2)CC1c1ccccc1 (configuration not stated)
MDA-MB-231 [1]
  IC50: 294 µM
HT-29 [2]
  IC50: 161 µM

## O=C(c1ccccc1)N1N=C(c2ccccn2)C[C@H]1c1ccccc1
MDA-MB-231 [1]
  IC50: > 500 µM
HT-29 [2]
  IC50: > 500 µM

## CN1N=C(c2ccccn2)CC1c1ccccc1 (configuration not stated)
MDA-MB-231 [1]
  IC50: 135 µM
HT-29 [2]
  IC50: 116 µM
